In publication PMC3676791, “Synthesis, Cytotoxicity, DNA Binding and Apoptosis of Rhein-Phosphonate Derivatives as Antitumor Agents” (International Journal of Molecular Sciences, 2013):
Where two headings read alike, the source gives them in different places.

Experiments:
[1] = system: Hct-116 cells; conditions: cited from earlier work
[2] = system: HepG-2 cells; experiment: MTT cytotoxicity assay, HepG-2; assay type: cell-based, human; conditions: 72 h, mean ± SD, three independent experiments
From the text: (§1) The following in vitro human cancer cell lines were used: HepG 2 ([…]), Hela (Henrietta Lacks strain of cancer cells), Hct-116 (human colorectal cells), CNE (human nasopharyngeal carcinoma cells), Spca-2 (human lung adenocarcinoma cell line), HUVEC (human umbilical vein endothelial cells). The cell lines (HepG 2, Hela, Hct-116, CNE, Spca-2, HUVEC) were purchased from the Cell Resource Center of Shanghai Institutes for Biological Sciences, The Academy of Sciences of China.
(§2) HepG-2, Hela, Hct-116, CNE, HUVEC cells were cultured in Dulbecco Modified Eagle Medium (DMEM) (Thermo), containing 4.0 mM L-Glutamine and 4,500 mg/L Glucose, supplemented with 10% (v/v) fetal bovine serum (FBS; HyClone, Logan, UT, USA). Spca-2 cells were cultured in RPMI-1640 medium, containing 2.05 mM L-Glutamine without Calcium nitrate, supplemented with 10% (v/v) fetal bovine serum (FBS; HyClone). The cell culture media was supplemented with penicillin/streptomycin at 100 Units/mL as adherent monolayers. Cell cultures were kept in a humidified incubator with 5% CO2 at 37 °C. Stock solutions were prepared in dimethyl sulfoxide (DMSO) and further dilutions were made with fresh culture medium. The concentration of DMSO in the final culture medium was 1%, which had no effect on the cell viability.
(§3) Chemosensitivity was assessed using 3-(4,5-dimethylthiazol-2-yl)-2,5-diphenyl tetrazolium bromide (MTT) assay. Briefly, exponentially growing HepG-2 (2,000–3,000 cells/well), Hela (2,000–3,000 cells/well), Hct-116 (3,000–4,000 cells/well), CNE (2,000–3,000 cells/well), HUVEC (2,000–3,000 cells/well) and Spca-2 […], and then […] of MTT (10 mg/mL) was added. After incubation for 4 h at 37 °C, the purple formazan crystals (i.e., a reduced form of MTT) generated from viable cells were dissolved by adding 100 μL DMSO in each well. The plates were swirled gently for 10 min to dissolve the precipitate, and quantified by measuring the optical density (OD) of the plates at a wavelength of 490 nm on plate reader (TECAN infinite M1000). Each concentration was repeated in three wells and the same experimental conditions were provided for all compounds and MTT analysis was repeated three times for each cell line.

[3] = system: CNE cells; experiment: MTT cytotoxicity assay, CNE; assay type: cell-based, human; conditions: 72 h, mean ± SD, three independent experiments
From the text: as §1, §2, §3

[4] = system: Hela cells; experiment: MTT cytotoxicity assay, Hela; assay type: cell-based, human; conditions: 72 h, mean ± SD, three independent experiments
From the text: as §1, §2, §3

[5] = system: HepG-2 cells; experiment: Annexin V-FITC/PI apoptosis flow cytometry, HepG-2; assay type: cell-based, human; conditions: 24 h
From the text: Many anthraquinones such as rhein and emodim induce apoptosis. Flow cytometry was used to investigate analog-induced apoptosis and cell death. The compounds (5a–c) with cytotoxic effects were investigated for the effects on the apoptosis of HepG-2 cells. To clarify the mechanism of rhein derivative-induced cell death, we determined both early and late apoptosis using annexin V-FITC and PI (Propidium iodide) labeling of live cells. Annexin V binds to phosphatidylserine, which is exposed on the cell membrane and is one of the earliest indicators of cellular apoptosis. PI is used as a DNA stain for both flow cytometry to evaluate cell viability or DNA content in cell cycle analysis and microscopy to visualize the nucleus and other DNA containing organelles. It can be used to differentiate necrotic, apoptotic and normal cells. In the present study, the apoptotic cell rates were determined for the HepG-2 cells after stimulation for 24 h by the compounds at different concentrations. […] Compounds 5a and 5b induced apoptosis in 84.4% and 70.4% of the HepG-2 cells. Compounds 5a and 5b are of special interest as these compounds seem to drive HepG-2 cells directly into early apoptosis. Meanwhile, we also investigated for the effects on the apoptosis of HUVEC cells.
Apoptosis was discriminated with the annexin V-FITC/propidium iodide test. […]

[6] = system: ct-DNA; experiment: GelRed-ct-DNA competitive fluorescence quenching (Stern-Volmer); assay type: binding, calf; parameters: unit not given here; conditions: [GelRed]/[DNA] = 1:10, excitation 350 nm, emission 590 nm
From the text: The binding ability of these complexes to ct-DNA was primarily investigated by competitive binding in which they served as an intercalative binding probe in competition with GelRed. GelRed, which is environmentally safe and ultra-sensitive for DNA staining, is a newly developed DNA intercalator to replace the classic DNA intercalator EB. Furthermore, both GelRed and EB bound with ct-DNA emit characteristic fluorescence at 590 nm upon 350 nm UV light excitation.
In competitive binding experiments, GelRed and ct-DNA solutions were pre-incubated for 30 min to ensure sufficient interactions. The concentration ratio of GelRed to DNA was set at [GelRed]/[DNA] = 1:10 to ensure sufficient binding sites of DNA for GelRed. The emission spectra of the GelRed–ctDNA system in the absence and presence of 5b were shown in Figure 2 (for that of 5a and 5c, see Figures S3 and S4). […] The presence of 5b considerably quenched the fluorescence emission of GelRed with the saturation state achieved at the [5b]/[GelRed] ratio of 8:1.
where [DNA] is the DNA concentration in nucleotides, ɛa is the molar extinction coefficient of the compound bound with DNA, ɛf is the extinction coefficient of the free compound, and ɛb is the extinction coefficient of the compound fully bound to DNA. ɛa, ɛf and ɛb are all calculated from the Lambert-Beer’s law (ɛ = A/[compound]). To determine ɛb, it is assumed that the compounds are fully bound with DNA at the point where no further hypochromicity is observed under the addition of ct-DNA, and the apparent absorbance Ab is regarded as the absorbance of only the bound compounds. Ct is the constant concentration of the compounds, and s is the number of binding sites in base pairs. A solution containing 2 × 10^−4 M DNA and 2 × 10^−5 M GelRed ([DNA]/[GelRed] = 10:1) was prepared for GelRed-DNA competitive binding studies. Fluorescence emission spectra were recorded under slit width as 10 nm/10 nm for Ex/Em, respectively. The quenching constant for comparing the efficiency of fluorescence quenching, i.e., Kq, of each compound was obtained by the linear fit of plotting I0/I versus [Q], according to the classic Stern-Volmer equation: I0/I = 1 + Kq × [Q] […] In the fluorescence polarization experiment, each sample was pre-incubated for 40 min before the fluorescence polarization was recorded under the condition of 595 nm emitting wavelength with 350 nm exciting wavelength, and slit width was set as 5 nm/5 nm for Ex/Em, respectively. CD absorption spectra of DNA were measured in TBS at a 100 nm/min scan rate in the wavelength range from 200 to 400 nm, with 1 × 10^−4 M DNA in the absence and presence of each compound of 2 × 10^−5 M, respectively. […]

[7] = system: HUVEC cells; experiment: MTT cytotoxicity assay, HUVEC normal cells; assay type: cell-based, human; conditions: normal cell line, 72 h, mean ± SD, three independent experiments
From the text: as §1, §2, §3

[8] = system: Hct-116 cells; experiment: MTT cytotoxicity assay, Hct-116; assay type: cell-based, human; conditions: 72 h; mean ± SD, three independent experiments
From the text: as §1, §2
as §3, with “Each concentration was repeated in three wells and the same experimental conditions were provided for all compounds and MTT analysis was repeated three times for each cell line.” left out

[9] = system: HepG-2 cells; experiment: Cell cycle analysis by PI flow cytometry, HepG-2; assay type: cell-based, human; conditions: 48 h, untreated 4.27%
From the text: The cell cycle is the series of events that take place in a cell leading to its division and duplication (replication). The cell cycle consists of four distinct phases: G1 phase, S phase (synthesis), G2 phase (collectively known as interphase) and M phase (mitosis). The G1 stage is the stage when preparation of energy and material for DNA replication occurs. The S stage is the stage when DNA replication occurs. The G2 stage is the stage when preparation for the M stage occurs. The M stage is “mitosis,” and is when nuclear and cytoplasmic division occurs.
The cell lines were treated with indicated concentrations of compounds. After being incubated for 48 h, cells were washed twice with ice-cold PBS, fixed and permeabilized with ice-cold 70% ethanol at −20 °C overnight. The cells were treated with 100 μg/mL RNase A at 37 °C for 30 min after washed with ice-cold PBS, and finally stained with 1 mg/mL propidium iodide (PI) in the dark at 4 °C for 30 min. Analysis was performed with the system software (CellQuest; BD Biosciences).

[10] = system: Spca-2 cells; experiment: MTT cytotoxicity assay, Spca-2; assay type: cell-based, human; conditions: 72 h; mean ± SD, three independent experiments
From the text: as §1, §2
as §3, with “Each concentration was repeated in three wells and the same experimental conditions were provided for all compounds and MTT analysis was repeated three times for each cell line.” left out

[11] = system: ct-DNA; experiment: Circular dichroism spectra of ct-DNA; assay type: binding, calf; conditions: [5b]/[DNA] ratio 1:10
From the text: The circular dichroism (CD) is a useful technique to assess whether the nucleic acids undergo conformational changes as a result of complex formation or changes in environmental conditions. […] This was consistent with the characteristic B conformation of DNA [56].
The decrease in the intensities of both positive and negative bands can usually be observed in the intercalative binding of small molecules to DNA [57].
where [DNA] is the DNA concentration in nucleotides, ɛa is the molar extinction coefficient of the compound bound with DNA, ɛf is the extinction coefficient of the free compound, and ɛb is the extinction coefficient of the compound fully bound to DNA. ɛa, ɛf and ɛb are all calculated from the Lambert-Beer’s law (ɛ = A/[compound]). To determine ɛb, it is assumed that the compounds are fully bound with DNA at the point where no further hypochromicity is observed under the addition of ct-DNA, and the apparent absorbance Ab is regarded as the absorbance of only the bound compounds. […] Fluorescence emission spectra were recorded under slit width as 10 nm/10 nm for Ex/Em, respectively. The quenching constant for comparing the efficiency of fluorescence quenching, i.e., Kq, of each compound was obtained by the linear fit of plotting I0/I versus [Q], according to the classic Stern-Volmer equation: I0/I = 1 + Kq × [Q] […]

Row | Compound | IC50 [1] [µM] | IC50 ([2]; Homo sapiens, HepG2) [µM] | IC50 ([3]; Homo sapiens, CNE) [µM] | IC50 ([4]; Homo sapiens, HeLa) [µM] | apoptosis induced, % of HepG-2 cells [5] [%] | quenching constant Kq (Stern-Volmer) [6] | IC50 [7] [µM] | IC50 [8] [µM] | G2-phase population ([9]; HepG-2, 20 μM) [%] | G2-phase population ([9]; HepG-2, 30 μM) [%] | G2-phase population ([9]; HepG-2, 40 μM) [%] | IC50 [2] [µM] | IC50 [10] [µM] | IC50 [3] [µM] | IC50 [4] [µM] | percentage decrease in maximal DNA negative CD absorption ([11]; negative band at 245 nm) [%] | percentage decrease in maximal DNA positive CD absorption ([11]; positive band at 280 nm) [%] | G2-phase population ([9]; HepG-2, 10 μM) [%] | IC50 ([7]; Homo sapiens, HUVEC) [µM]
1 | O=c1[nH]cc(F)c(=O)[nH]1 [5-Fu, fluorouracil, reference compound] | 4.3 ± 0.52 | 20.3 ± 2.43 | > 50 | > 50 |  |  |  |  |  |  |  |  |  |  |  |  |  |  | 
2 | CCOP(=O)(OCC)C(C)(NC(=O)c1cc(O)c2c(c1)C(=O)c1cccc(O)c1C2=O)c1ccc(C)cc1 (centres unmarked) [5a] |  |  |  |  | 84.4 | 2.02 × 10^3 | > 100 | 30.6 ± 8.75 | 7.23 | 11.08 | 18.05 | 15.1 ± 1.54 | 16.9 ± 1.32 | 33.8 ± 2.17 | > 50 |  |  |  | 
3 | CCOP(=O)(OCC)C(C)(CCc1ccccc1)NC(=O)c1cc(O)c2c(c1)C(=O)c1cccc(O)c1C2=O (centres unmarked) [5b, O,O′-Diethyl{[2-(4,5-dihydroxy-9,10-dioxo-9,10-dihydroanthracene)acetamido] (Phenylethyl)ethyl} phosphonate] |  |  |  |  | 70.4 | 3.2 × 10^3 | > 100 | 12.7 ± 1.5 | 14.56 | 18.23 |  | 8.82 ± 0.95 | 9.01 ± 0.87 | 27.3 ± 3.78 | 45.4 | 32.2 | 9.78 | 8.52 | 
4 | O=C(O)c1cc(O)c2c(c1)C(=O)c1cccc(O)c1C2=O [Rhein] |  |  |  | > 50 |  | 3.94 × 10^3 |  |  |  |  |  |  |  |  |  |  |  |  | 79.7 ± 5.4
5 | O,O′-Diethyl {[2-(4,5-dihydroxy-9,10-dioxo-9,10-dihydroanthracene) acetamido] (phenyl) methyl} phosphonate [5c] |  |  |  |  |  | 0.753 × 10^3 | > 100 | 23.4 ± 3.22 |  |  |  | 18.2 ± 1.87 | 25.1 ± 2.72 | 38.3 ± 8.23 | > 50 |  |  |  | 
